Laboratory results taken from EP3928779A1 (Chugai Seiyaku Kabushiki Kaisha, priority 2014, dated 2016).

tested on: rat small-intestinal brush border membrane vesicles; assay: Inhibitory effect on 33PO4 uptake into rat small-intestinal brush border membrane vesicles (rapid filtration method); assay type: biochemical; settings: 33PO4 uptake into rat small-intestinal BBMVs; test compound 1 µM; reacted for 60 seconds
Procedure, shortened: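 Uptake of ^33PO4 was measured by rapid filtration and liquid scintillation counting of filter-retained vesicles, after quenching with ice-cold 110 mM NaCl/1 mM KH2PO4/10 mM HEPES pH 7.5. Vesicles were brush border membranes from the upper small intestine of female Wistar rats aged 4–5 weeks.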

| Structure (SMILES) | Rate of uptake inhibition (%) (1 µM) |
| --- | --- |
| CN1CCC(Oc2ccc(CN3C(=O)C(C(=O)Nc4ccc(C(F)(F)F)cc4-c4cc(C(F)(F)F)ncn4)=C(O)C4(CCC4)N3C)c(F)c2F)CC1 [Example 411] | 32% |
| CN(CCOc1ccc(CN2C(=O)C(C(=O)Nc3ccc(C(F)(F)F)cc3-c3cc(C(F)(F)F)ncn3)=C(O)C3(CCCC3)N2C)c(F)c1F)C1COC1 [Example 412, 7-(2,3-Difluoro-4-(2-(methyl(oxetan-3-yl)amino)ethoxy)benzyl)-10-hydroxy-6-methyl-8-oxo-N-(4-(trifluoromethyl)-2-(6-(trifluoromethyl)pyrimidin-4-yl)phenyl)-6,7-diazaspiro[4.5]dec-9-ene-9-carboxamide] | 52% |
| CN1N(Cc2ccc(OCC3CCCO3)c(F)c2F)C(=O)C(C(=O)Nc2ccc(C(F)(F)F)cc2-c2cc(C(F)(F)F)ncn2)=C(O)C12CCCC2 (centres unmarked) [Example 413] | 34% |
| CN(C)CC(C)(C)COc1ccc(CN2C(=O)C(C(=O)Nc3ccc(C(F)(F)F)cc3-c3cc(C(F)(F)F)ncn3)=C(O)C3(CCCC3)N2C)c(F)c1F [Example 414, 7-(4-(3-(Dimethylamino)-2,2-dimethylpropoxy)-2,3-difluorobenzyl)-10-hydroxy-6-methyl-8-oxo-N-(4-(trifluoromethyl)-2-(6-(trifluoromethyl)pyrimidin-4-yl)phenyl)-6,7-diazaspiro[4.5]dec-9-ene-9-carboxamide] | 27% |
| COCCN(C)CCNc1ccc(CN2C(=O)C(C(=O)Nc3ccc(C(F)(F)F)cc3-c3cc(C(F)(F)F)ncn3)=C(O)C3(CCCC3)N2C)c(F)c1F [Example 417, 7-(2,3-Difluoro-4-((2-((2-methoxyethyl)(methyl)amino)ethyl)amino)benzyl)-10-hydroxy-6-methyl-8-oxo-N-(4-(trifluoromethyl)-2-(6-(trifluoromethyl)pyrimidin-4-yl)phenyl)-6,7-diazaspiro[4.5]dec-9-ene-9-carboxamide] | 48% |
| CN(C[C@H](O)[C@@H](O)[C@H](O)[C@H](O)CO)C(=O)CCCOc1ccc(CN2C(=O)C(C(=O)Nc3ccc(C(F)(F)F)cc3-c3cc(C(F)(F)F)ncn3)=C(O)C3(CCCC3)N2C)c(F)c1F [Example 418, 7-[[2,3-Difluoro-4-[4-[methyl-[(2S,3R,4R,5R)-2,3,4,5,6-pentahydroxyhexyl]amino]-4-oxobutoxy]phenyl]methyl]-10-hydroxy-6-methyl-8-oxo-N-[4-(trifluoromethyl)-2-[6-(trifluoromethyl)pyrimidin-4-yl]phenyl]-6,7-diazaspiro[4.5]dec-9-ene-9-carboxamide] | 29% |
| CN1N(Cc2ccc(OCCOCCNCC(O)CO)c(F)c2F)C(=O)C(C(=O)Nc2ccc(C(F)(F)F)cc2-c2cc(C(F)(F)F)ncn2)=C(O)C12CCCC2 (centres unmarked) [Example 419, 7-[[4-[2-[2-(2,3-Dihydroxypropylamino)ethoxy]ethoxy]-2,3-difluorophenyl]methyl]-10-hydroxy-6-methyl-8-oxo-N-[4-(trifluoromethyl)-2-[6-(trifluoromethyl)pyrimidin-4-yl]phenyl]-6,7-diazaspiro[4.5]dec-9-ene-9-carboxamide] | 22% |
| CN(CCOCCOc1ccc(CN2C(=O)C(C(=O)Nc3ccc(C(F)(F)F)cc3-c3cc(C(F)(F)F)ncn3)=C(O)C3(CCCC3)N2C)c(F)c1F)C[C@H](O)[C@@H](O)[C@H](O)[C@H](O)CO [Example 420, 7-[[2,3-Difluoro-4-[2-[2-[methyl-[(2S,3R,4R,5R)-2,3,4,5,6-pentahydroxyhexyl]amino]ethoxy]ethoxy]phenyl]methyl]-10-hydroxy-6-methyl-8-oxo-N-[4-(trifluoromethyl)-2-[6-(trifluoromethyl)pyrimidin-4-yl]phenyl]-6,7-diazaspiro[4.5]dec-9-ene-9-carboxamide] | 19% |
| CN(CCOCCOCCOCCOCCOc1ccc(CN2C(=O)C(C(=O)Nc3ccc(C(F)(F)F)cc3-c3cc(C(F)(F)F)ncn3)=C(O)C3(CCCC3)N2C)c(F)c1F)C[C@@H](O)[C@H](O)[C@@H](O)[C@@H](O)CO [Example 421, 7-[[2,3-Difluoro-4-[2-[2-[2-[2-[2-[methyl-[(2R,3S,4S,5S)-2,3,4,5,6-pentahydroxyhexyl]amino]ethoxy]ethoxy]ethoxy]ethoxy]ethoxy]phenyl]methyl]-10-hydroxy-6-methyl-8-oxo-N-[4-(trifluoromethyl)-2-[6-(trifluoromethyl)pyrimidin-4-yl]phenyl]-6,7-diazaspiro[4.5]dec-9-ene-9-carboxamide] | 24% |
| CN(C[C@H](O)[C@@H](O)[C@H](O)[C@H](O)CO)C(=O)CCOCCOCCOc1ccc(CN2C(=O)C(C(=O)Nc3ccc(C(F)(F)F)cc3-c3cc(C(F)(F)F)ncn3)=C(O)C3(CCCC3)N2C)c(F)c1F [Example 422] | 29% |
| CN(C[C@H](O)[C@@H](O)[C@H](O)[C@H](O)CO)C(=O)CCOCCOCCOCCOc1ccc(CN2C(=O)C(C(=O)Nc3ccc(C(F)(F)F)cc3-c3cc(C(F)(F)F)ncn3)=C(O)C3(CCCC3)N2C)c(F)c1F [Example 423] | 5% |
| CN1N(Cc2ccc(OCCOCCOCCOCCC(=O)NCC(O)CO)c(F)c2F)C(=O)C(C(=O)Nc2ccc(C(F)(F)F)cc2-c2cc(C(F)(F)F)ncn2)=C(O)C12CCCC2 (centres unmarked) [Example 424] | 17% |
| CN(CCOCCC(=O)N(C)C[C@H](O)[C@@H](O)[C@H](O)[C@H](O)CO)CCOc1ccc(CN2C(=O)C(C(=O)Nc3ccc(C(F)(F)F)cc3-c3cc(C(F)(F)F)ncn3)=C(O)C3(CCCC3)N2C)c(F)c1F [Example 425] | 5% |
| CN(CCOCCC(=O)NCC(O)CO)CCOc1ccc(CN2C(=O)C(C(=O)Nc3ccc(C(F)(F)F)cc3-c3cc(C(F)(F)F)ncn3)=C(O)C3(CCCC3)N2C)c(F)c1F (centres unmarked) [Example 426] | 24% |
| CN1N(Cc2ccc(OCCOCCNC(=O)[C@@H](O)[C@H](O)[C@@H](O)[C@@H](O)CO)c(F)c2F)C(=O)C(C(=O)Nc2ccc(C(F)(F)F)cc2-c2cc(C(F)(F)F)ncn2)=C(O)C12CCCC2 [Example 427, 7-[[2,3-Difluoro-4-[2-[2-[[(2S,3R,4S,5S)-2,3,4,5,6-pentahydroxyhexanoyl]amino]ethoxy]ethoxy]phenyl]methyl]-10-hydroxy-6-methyl-8-oxoN-[4-(trifluoromethyl)-2-[6-(trifluoromethyl)pyrimidin-4-yl]phenyl]-6,7-diazaspiro[4.5]dec-9-ene-9-carboxamide] | 12% |
| CN1N(Cc2ccc(OCCOCCOCCOCCNC(=O)[C@@H](O)[C@H](O)[C@@H](O)[C@@H](O)CO)c(F)c2F)C(=O)C(C(=O)Nc2ccc(C(F)(F)F)cc2-c2cc(C(F)(F)F)ncn2)=C(O)C12CCCC2 [Example 428, 7-[[2,3-Difluoro-4-[2-[2-[2-[2-[[(2S,3R,4S,5S)-2,3,4,5,6-pentahydroxyhexanoyl]amino]ethoxy]ethoxy]ethoxy]ethoxy]phenyl]methyl]-10-hydroxy-6-methyl-8-oxo-N-[4-(trifluoromethyl)-2-[6-(trifluoromethyl)pyrimidin-4-yl]phenyl]-6,7-diazaspiro[4. 5]dec-9-ene-9-carboxamide] | 14% |
| COCCN(C)CCOCCOc1ccc(CN2C(=O)C(C(=O)Nc3ccc(C(F)(F)F)cc3-c3cc(C(F)(F)F)ncn3)=C(O)C3(CCCC3)N2C)c(F)c1F [Example 429, 7-[[2,3-Difluoro-4-[2-[2-[2-methoxyethyl(methyl)amino]ethoxy]ethoxy]phenyl]methyl]-10-hydroxy-6-methyl-8-oxo-N-[4-(trifluoromethyl)-2-[6-(trifluoromethyl)pyrimidin-4-yl]phenyl]-6,7-diazaspiro[4.5]dec-9-ene-9-carboxamide] | 41% |
| COCCN(C)CCOCCOCCOc1ccc(CN2C(=O)C(C(=O)Nc3ccc(C(F)(F)F)cc3-c3cc(C(F)(F)F)ncn3)=C(O)C3(CCCC3)N2C)c(F)c1F [Example 430] | 29% |
| COCCN(C)CCOCCOCCOCCOc1ccc(CN2C(=O)C(C(=O)Nc3ccc(C(F)(F)F)cc3-c3cc(C(F)(F)F)ncn3)=C(O)C3(CCCC3)N2C)c(F)c1F [Example 431] | 26% |
| COCCN(C)CCOCCOCCOCCOCCOc1ccc(CN2C(=O)C(C(=O)Nc3ccc(C(F)(F)F)cc3-c3cc(C(F)(F)F)ncn3)=C(O)C3(CCCC3)N2C)c(F)c1F [Example 432] | 11% |
| CN1N(Cc2ccc(OCCNCCS(=O)(=O)O)c(F)c2F)C(=O)C(C(=O)Nc2ccc(C(F)(F)F)cc2-c2cc(C(F)(F)F)ncn2)=C(O)C12CCCC2 [Example 435, 2-[2-[2,3-Difluoro-4-[[10-hydroxy-6-methyl-8-oxo-9-[[4-(trifluoromethyl)-2-[6-(trifluoromethyl)pyrimidin-4-yl]phenyl]carbamoyl]-6,7-diazaspiro[4.5]dec-9-en-7-yl]methyl]phenoxy]ethylamino]ethanesulfonic acid] | 11% |
| COCCN(C)CCOc1c(I)cc(CN2C(=O)C(C(=O)Nc3ccc(C(F)(F)F)cc3-c3cc(C(F)(F)F)ncn3)=C(O)C3(CCCC3)N2C)c(F)c1F [Example 437, 7-[[2,3-Difluoro-5-iodo-4-[2-[2-methoxyethyl(methyl)amino]ethoxy]phenyl]methyl]-10-hydroxy-6-methyl-8-oxo-N-[4-(trifluoromethyl)-2-[6-(trifluoromethyl)pyrimidin-4-yl]phenyl]-6,7-diazaspiro[4.5]dec-9-ene-9-carboxamide] | 45% |
| COCCCN(C)C(=O)c1cc(CN2C(=O)C(C(=O)Nc3ccc(C(F)(F)F)cc3-c3cc(C(F)(F)F)ncn3)=C(O)C3(CCCC3)N2C)c(F)c(F)c1OCCN(C)CCOC [Example 438, 7-[[2,3-Difluoro-4-[2-[2-methoxyethyl(methyl)amino]ethoxy]-5-[3-methoxypropyl(methyl)carbamoyl]phenyl]methyl]-10-hydroxy-6-methyl-8-oxo-N-[4-(trifluoromethyl)-2-[6-(trifluoromethyl)pyrimidin-4-yl]phenyl]-6,7-diazaspiro[4.5]dec-9-ene-9-carboxamide] | 33% |
